US20260174083A1, “FUNGICIDAL MIXTURE COMPRISING SUBSTITUTED PYRIDINES” (BASF SE, priority 2022, published 2026)
Like-named read-outs stand apart in the source and are kept apart here.

Legend:
Assay type in all cases: cell-based
[1] = test system: Septoria tritici; test: Activity against leaf blotch on wheat caused by Septoria tritici (microtiterplate test)
[2] = test system: Pyricularia oryzae; test: microbe, parasite or virus in culture; conditions: for Observed efficacy: single active, MTP, 405 nm, 7 days after inoculation
[3] = test system: Botrytis cinerea; test: Activity against the grey mold Botrytis cinerea in the microtiterplate test
[4] = Zymoseptoria tritici, 168 h, single active, MTP, 405 nm, 7 days after inoculation, read-out: Observed efficacy
[5] = Zymoseptoria tritici, 168 h, single active, 0.016 ppm, MTP, 405 nm, 7 days after inoculation, read-out: Observed efficacy
[6] = Zymoseptoria tritici, 168 h, single active, 0.063 ppm, MTP, 405 nm, 7 days after inoculation, read-out: Observed efficacy
[7] = Zymoseptoria tritici, 168 h, single active, 0.25 ppm, MTP, 405 nm, 7 days after inoculation, read-out: Observed efficacy
[8] = Pyricularia oryzae, 168 h, read-out: Observed efficacy
[9] = Botrytis cinerea, 168 h, single active, MTP, 405 nm, 7 days after inoculation, read-out: Observed efficacy
[10] = Botrytis cinerea, 168 h, single active, 1 ppm, MTP, 405 nm, 7 days after inoculation, read-out: Observed efficacy
[11] = single active, 0.063 ppm, MTP, 405 nm, 7 days after inoculation
[12] = Botrytis cinerea, 168 h, single active, 4 ppm, MTP, 405 nm, 7 days after inoculation, read-out: Observed efficacy

With `CO/C=C(/C(=O)OC)c1ccccc1Oc1cc(Oc2ccccc2C#N)ncn1` [Azoxystrobin, azoxystrobin, reference compound] as the molecule, how does the Observed efficacy ([1]; single active, 0.016 ppm, MTP, 405 nm, 7 days after inoculation) read?
The Observed efficacy was 0%.

For `O=C(Nc1ccccc1-c1ccc(Cl)cc1)c1cccnc1Cl` [Boscalid, boscalid, reference compound], which inhibition of growth at 1 ppm [1, 4] is on record?
The inhibition of growth at 1 ppm was 54%.

What does the source list for `Cc1cc(C2=N[C@@H](C)[C@H](C)Oc3ccccc32)cnc1C(F)F` [Compound 1-1]?
inhibition of growth at 0.016 ppm [1, 5]: 0%; inhibition of growth at 0.063 ppm [1, 6]: 0%; inhibition of growth at 0.25 ppm [1, 7]: 26%; inhibition of growth at 0.25 ppm [2, 8]: 7%; inhibition of growth at 0.25 ppm [3, 9]: 7%

`Cc1cc(C2=N[C@@H](C)C(C)(C)Oc3c(F)cccc32)cnc1C(F)F` [Compound 1-2] was tested. Which inhibition of growth at 0.016 ppm [1, 5] did it give?
Its inhibition of growth at 0.016 ppm is 0%.

And the inhibition of growth at 0.063 ppm [1, 6]?
Its inhibition of growth at 0.063 ppm is 0%.

What about the inhibition of growth at 0.25 ppm [1, 7] of the same molecule?
Its inhibition of growth at 0.25 ppm is 13%.

And the inhibition of growth at 0.063 ppm [2, 8]?
Its inhibition of growth at 0.063 ppm is 11%.

What about the inhibition of growth at 0.25 ppm [2, 8] of the same molecule?
Its inhibition of growth at 0.25 ppm is 11%.

And the inhibition of growth at 1 ppm [2, 8]?
The inhibition of growth at 1 ppm was 35%.

What about the inhibition of growth at 0.063 ppm ([3]; Botrytis cinerea, 168 h, single active, 0.063 ppm, MTP, 405 nm, 7 days after inoculation, read-out: Observed efficacy) of the same molecule?
Its inhibition of growth at 0.063 ppm is 11%.

And the inhibition of growth at 0.25 ppm [3, 9]?
Its inhibition of growth at 0.25 ppm is 11%.

What about the inhibition of growth at 1 ppm [3, 10] of the same molecule?
The inhibition of growth at 1 ppm was 35%.

For `Cc1cc(C2=NC(C)C(C)(C)Oc3c(F)cccc32)cnc1C(F)F` (stereo not drawn) [Compound 1-3], which inhibition of growth at 1 ppm [2, 8] is on record?
Its inhibition of growth at 1 ppm is 19%.

And the inhibition of growth at 1 ppm [3, 10]?
Its inhibition of growth at 1 ppm is 9%.

What does the source list for `Cc1cc(C2=N[C@@H](C)C(C)(C)Oc3ccccc32)cnc1C(F)F` [Compound 1-4]?
inhibition of growth at 1 ppm [2, 8]: 17%; inhibition of growth at 1 ppm [3, 10]: 17%

Which inhibition of growth at 0.016 ppm [1, 5] does the source give for `Cc1cc(C2=N[C@H](C)C(C)(C)Oc3ccccc32)cnc1C(F)F` [Compound 1-5] here?
Its inhibition of growth at 0.016 ppm is 0%.

And the inhibition of growth at 0.063 ppm [1, 6]?
The inhibition of growth at 0.063 ppm was 3%.

What about the inhibition of growth at 0.25 ppm [1, 7] of the same molecule?
The inhibition of growth at 0.25 ppm was 1%.

For `Cc1cc(C2=NC3(CC3)COc3c(F)cccc32)cnc1C(F)F` [Compound 1-6], which inhibition of growth at 0.25 ppm [1, 7] is on record?
Its inhibition of growth at 0.25 ppm is 0%.

What about the inhibition of growth at 1 ppm [1, 4] of the same molecule?
The inhibition of growth at 1 ppm was 3%.

And the inhibition of growth at 0.25 ppm [2, 8]?
Its inhibition of growth at 0.25 ppm is 5%.

And the inhibition of growth at 1 ppm [2, 8]?
The inhibition of growth at 1 ppm was 14%.

What about the inhibition of growth at 0.25 ppm [3, 9] of the same molecule?
The inhibition of growth at 0.25 ppm was 5%.

What about the inhibition of growth at 1 ppm [3, 10] of the same molecule?
Its inhibition of growth at 1 ppm is 14%.

`Cc1cc(C2=NCC(C)(C)Oc3c(F)cccc32)cnc1C(F)F` [Compound 1-7] was tested. Which inhibition of growth at 0.016 ppm [1, 5] did it give?
The inhibition of growth at 0.016 ppm was 12%.

And the inhibition of growth at 0.25 ppm [2, 8]?
Its inhibition of growth at 0.25 ppm is 0%.

And the inhibition of growth at 0.25 ppm [3, 9]?
Its inhibition of growth at 0.25 ppm is 0%.

What does the source list for `CC1COC(Cn2cncn2)(c2ccc(Oc3ccc(Cl)cc3)cc2Cl)O1` (stereo not drawn) [Difenoconazol, difenoconazole, reference compound]?
inhibition of growth at 0.25 ppm [2, 8]: 26%; inhibition of growth at 0.25 ppm [3, 9]: 26%

Which Observed efficacy ([2]; 1 ppm) does the source give for `CNC(=O)/C(=N/OC)c1ccccc1COc1cc(C)ccc1C` [Dimoxystrobin, dimoxystrobin, reference compound] here?
The Observed efficacy was 16%.

What about the Observed efficacy ([3]; single active, 1 ppm, MTP, 405 nm, 7 days after inoculation) of the same molecule?
Its Observed efficacy is 16%.

Which inhibition of growth at 0.25 ppm ([1]; Zymoseptoria tritici, 168 h, read-out: Observed efficacy) does the source give for `N#Cc1c[nH]cc1-c1cccc2c1OC(F)(F)O2` [Fludioxonil, fludioxonil, reference compound] here?
The inhibition of growth at 0.25 ppm was 26%.

With `Cn1cc(C(=O)Nc2ccccc2-c2cc(F)c(F)c(F)c2)c(C(F)F)n1` [Fluxapyroxad, fluxapyroxad, reference compound] as the molecule, how does the Observed efficacy [1, 11] read?
The Observed efficacy was 37%.

For `CC(C)NC(=O)N1CC(=O)N(c2cc(Cl)cc(Cl)c2)C1=O` [Iprodion, iprodione, reference compound], which inhibition of growth at 1 ppm [2, 8] is on record?
The inhibition of growth at 1 ppm was 60%.

And the inhibition of growth at 1 ppm [3, 10]?
Its inhibition of growth at 1 ppm is 60%.

Which Observed efficacy ([1]; single active, 0.25 ppm, MTP, 405 nm, 7 days after inoculation) does the source give for `Cc1cc(OC(C)C)ccc1C(=O)C(C)(C)NC(=O)c1sccc1C` [Isofetamid, isofetamid, reference compound] here?
Its Observed efficacy is 46%.

With `CC(C)OC(=O)C(C(=O)OC(C)C)=C1SCCS1` [Isoprothiolan, isoprothiolane, reference compound] as the molecule, how does the inhibition of growth at 4 ppm [2, 8] read?
The inhibition of growth at 4 ppm was 8%.

What about the inhibition of growth at 4 ppm ([3]; Botrytis cinerea, 168 h, read-out: Observed efficacy) of the same molecule?
Its inhibition of growth at 4 ppm is 8%.

`N#Cc1ccccc1NC(=O)c1snc(Cl)c1Cl` [Isotianil, isotianil, reference compound] was tested. Which Observed efficacy ([2]; 4 ppm) did it give?
The Observed efficacy was 6%.

And the Observed efficacy ([3]; single active, 4 ppm, MTP, 405 nm, 7 days after inoculation)?
Its Observed efficacy is 6%.

Which results are given for `CC(O)(Cn1cncn1)c1ccc(Oc2ccc(Cl)cc2)cc1C(F)(F)F` (stereo not drawn) [Mefentrifluconazol, mefentrifluconazole, reference compound]?
Observed efficacy ([2]; 0.063 ppm): 49%; Observed efficacy [3, 11]: 49%

`OC(Cc1ccccc1Cl)(Cn1nc[nH]c1=S)C1(Cl)CC1` (stereo not drawn) [Prothioconazol, prothioconazole, reference compound] was tested. Which inhibition of growth at 0.25 ppm [1, 7] did it give?
The inhibition of growth at 0.25 ppm was 42%.

What about the inhibition of growth at 4 ppm [2, 8] of the same molecule?
Its inhibition of growth at 4 ppm is 35%.

And the inhibition of growth at 4 ppm [3, 12]?
Its inhibition of growth at 4 ppm is 35%.

`COC(=O)NC(=S)Nc1ccccc1NC(=S)NC(=O)OC` [Thiophanate methyl, thiophanate-methyl, reference compound] was tested. Which inhibition of growth at 1 ppm [1, 4] did it give?
Its inhibition of growth at 1 ppm is 10%.

And the inhibition of growth at 1 ppm [2, 8]?
Its inhibition of growth at 1 ppm is 9%.

And the inhibition of growth at 1 ppm [3, 10]?
Its inhibition of growth at 1 ppm is 9%.

For `Cc1ccc(NC(=O)c2snnc2C)cc1Cl` [Tiadinil, tiadinil, reference compound], which inhibition of growth at 4 ppm ([1]; Zymoseptoria tritici, 168 h, single active, 4 ppm, MTP, 405 nm, 7 days after inoculation, read-out: Observed efficacy) is on record?
Its inhibition of growth at 4 ppm is 24%.

Which inhibition of growth at 1 ppm [1, 4] does the source give for `Cc1cccc2sc3nncn3c12` [Tricyclazol, tricyclazole, reference compound] here?
The inhibition of growth at 1 ppm was 14%.

What about the inhibition of growth at 4 ppm [2, 8] of the same molecule?
Its inhibition of growth at 4 ppm is 14%.

What about the inhibition of growth at 4 ppm [3, 12] of the same molecule?
The inhibition of growth at 4 ppm was 14%.
